Experiments:
Drs2p-Cdc50p complex [1] = target: T1, Drs2p-Cdc50p complex (Saccharomyces cerevisiae, UniProt P39524); assay: ATPase activity of complex purified without PS; assay type: biochemical; conditions: lipid stimulation at 0.05 mg/mL; 0.025 mg/mL PI4P, 1 mM Mg-ATP, 1 mg/mL DDM, pH 7, 30 °C
T1 construct: gene DRS2; full-length, co-expressed in yeast W303.1b/GAL4; N-terminal Bad tag (Drs2p) and His10 tag (Cdc50p) cut by TEV, Gly plus four-Gly linker left; 154,050 Da Drs2p, 45,136 Da unglycosylated Cdc50p; glycosylated; 1:1 complex in DDM; with Cell division control protein 50
T1 sequence (P39524 1-1355): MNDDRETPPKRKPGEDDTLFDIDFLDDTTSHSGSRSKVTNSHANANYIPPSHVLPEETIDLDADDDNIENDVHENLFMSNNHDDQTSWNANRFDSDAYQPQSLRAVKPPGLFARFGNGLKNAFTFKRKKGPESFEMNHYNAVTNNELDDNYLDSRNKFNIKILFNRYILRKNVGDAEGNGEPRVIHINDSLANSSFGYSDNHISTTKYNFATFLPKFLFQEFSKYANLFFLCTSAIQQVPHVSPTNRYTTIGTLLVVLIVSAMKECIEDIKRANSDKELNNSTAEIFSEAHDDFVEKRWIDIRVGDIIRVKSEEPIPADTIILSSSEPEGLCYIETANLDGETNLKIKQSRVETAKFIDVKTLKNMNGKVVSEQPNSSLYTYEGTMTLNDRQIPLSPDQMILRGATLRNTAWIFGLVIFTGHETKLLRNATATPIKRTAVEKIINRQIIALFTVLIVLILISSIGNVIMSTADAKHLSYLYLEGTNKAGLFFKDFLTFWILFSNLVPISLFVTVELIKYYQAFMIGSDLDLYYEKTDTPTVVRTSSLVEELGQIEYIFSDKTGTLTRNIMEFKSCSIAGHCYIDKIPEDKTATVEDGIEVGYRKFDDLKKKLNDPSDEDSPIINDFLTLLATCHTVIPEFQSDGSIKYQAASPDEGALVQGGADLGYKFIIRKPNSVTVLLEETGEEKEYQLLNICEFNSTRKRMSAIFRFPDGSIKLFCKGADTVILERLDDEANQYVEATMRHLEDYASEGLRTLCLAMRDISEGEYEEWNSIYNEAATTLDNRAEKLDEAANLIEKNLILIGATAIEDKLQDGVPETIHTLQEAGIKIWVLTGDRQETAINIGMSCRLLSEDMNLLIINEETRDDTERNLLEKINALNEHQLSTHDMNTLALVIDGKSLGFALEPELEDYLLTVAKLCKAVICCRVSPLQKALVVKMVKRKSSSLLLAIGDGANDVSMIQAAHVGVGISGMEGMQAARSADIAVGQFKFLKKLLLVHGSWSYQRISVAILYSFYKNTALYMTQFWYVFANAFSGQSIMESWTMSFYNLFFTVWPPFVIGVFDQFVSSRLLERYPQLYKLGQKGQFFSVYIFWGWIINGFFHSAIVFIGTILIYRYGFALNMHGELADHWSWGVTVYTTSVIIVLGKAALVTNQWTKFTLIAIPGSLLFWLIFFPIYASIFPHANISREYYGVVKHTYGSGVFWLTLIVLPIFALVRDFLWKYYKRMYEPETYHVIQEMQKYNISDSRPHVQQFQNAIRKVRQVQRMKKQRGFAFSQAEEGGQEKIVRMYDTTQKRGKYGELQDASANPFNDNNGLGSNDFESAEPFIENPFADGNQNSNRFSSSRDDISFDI
T1 sequence (P25656 1-391 partner): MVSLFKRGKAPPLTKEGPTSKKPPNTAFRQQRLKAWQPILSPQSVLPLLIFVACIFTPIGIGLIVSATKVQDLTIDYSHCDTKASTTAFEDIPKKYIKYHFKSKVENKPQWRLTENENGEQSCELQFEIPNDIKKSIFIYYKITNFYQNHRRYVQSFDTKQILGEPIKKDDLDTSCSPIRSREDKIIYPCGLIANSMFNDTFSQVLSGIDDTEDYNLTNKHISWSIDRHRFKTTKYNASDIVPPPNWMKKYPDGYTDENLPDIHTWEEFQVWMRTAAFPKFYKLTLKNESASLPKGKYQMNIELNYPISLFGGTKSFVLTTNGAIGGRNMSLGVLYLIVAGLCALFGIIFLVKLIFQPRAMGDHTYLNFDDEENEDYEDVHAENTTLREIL

Drs2p-Cdc50p complex [2] = target: T1, Drs2p-Cdc50p complex; assay: ATPase activity, colorimetric Pi release; assay type: biochemical; conditions: transported lipid stimulating ATPase; 0.025 mg/mL PI4P, 1 mM Mg-ATP, 1 mg/mL DDM, pH 7, 30 °C; residual PS from purification present; read-out: [PS]1/2
Drs2p-Cdc50p complex [3] = target: T1, Drs2p-Cdc50p complex; assay: ATPase activity, colorimetric Pi release; assay type: biochemical; conditions: inhibitor; 1 h pre-incubation on ice; 1 mM ATP, 0.025 mg/mL PI4P, 0.05 mg/mL POPS, 1 mg/mL DDM, pH 7, 30 °C; printed only as a range
[4] = target: T2, Drs2p, tag-free after TEV cleavage (S. cerevisiae, UniProt P39524 1-1355); assay: in-gel fluorescence of haloalkane-modified Trp residues after SDS-PAGE; band intensities of Drs2p and Cdc50p in the streptavidin-purified complex, 4-20% gradient gel; conditions: both partners purified
T2 construct: Drs2p, yeast P4-ATPase; theoretical mass of the recombinant protein 154,050 Da; also called purified Drs2p; source: S. cerevisiae W303.1b/GAL4, co-expressed with Cdc50p, purified (streptavidin-Sepharose, TEV elution, Ni2+-TED; SEC); not shown: Bad (Biotin Acceptor Domain), N-terminal, cleaved
T2 sequence (looked up): T1 sequence (P39524 1-1355)

[5] = substrate: Nc1ncnc2c1ncn2[C@@H]1O[C@H](COP(=O)(O)OP(=O)(O)OP(=O)(O)O)[C@@H](O)[C@H]1O; assay: ATPase activity, colorimetric Pi release; assay type: biochemical, Saccharomyces cerevisiae; conditions: 0.025 mg/mL PI4P, 0.05 mg/mL POPS, 1 mg/mL DDM, ATP-regenerating system, pH 7, 30 °C

CCCCCCCCCCCCCC(=O)OC[C@H](COP(=O)(O)OC[C@H](N)C(=O)O)OC(=O)CCCCCCCCCCCCC [DMPS, 1,2-dimyristoyl-sn-glycero-3-phospho-L-serine] was tested, and the “ATPase activity of complex purified without PS” value (Drs2p-Cdc50p complex [1]) was “PS had the largest stimulating effect, irrespective of its fatty acyl chain (POPS or DMPS)”.

With CCCCCCCC/C=C\CCCCCCCC(=O)O[C@H](COC(=O)CCCCCCCCCCCCCCC)COP(=O)(O)OCCN [POPE, 1-palmitoyl-2-oleoyl-sn-glycero-3-phosphoethanolamine] the “ATPase activity of complex purified without PS” value (Drs2p-Cdc50p complex [1]) was “POPC only had a slightly stimulating effect, POPE had a larger one”.

CCCCCCCC/C=C\CCCCCCCC(=O)O[C@H](COC(=O)CCCCCCCCCCCCCCC)COP(=O)(O)OC[C@H](N)C(=O)O [POPS, 1-palmitoyl-2-oleoyl-sn-glycero-3-phospho-L-serine] was tested, and the Km (Drs2p-Cdc50p complex [2]) was > 26.2 µM.

[O]=[V]([OH])([OH])[OH] [orthovanadate] was tested, and the KI (Drs2p-Cdc50p complex [3]) was “vanadate had a rather poor KI, in the millimolar range (Figure 7E)”.

B1: Cdc50p, tag-free after TEV cleavage (natural protein, S. cerevisiae, UniProt P25656 1-391, looked up)
chain: T1 sequence (P25656 1-391 partner)
modifications: glycosylated
notes: Cdc50p, accessory subunit of Drs2p; recombinant non-glycosylated mass 45,136 Da including the linker glycines; also called glycosylated Cdc50p; source: S. cerevisiae W303.1b/GAL4, co-expressed with Drs2p, purified with it (streptavidin-Sepharose, TEV elution, Ni2+-TED; SEC); not shown: His10, N-terminal, cleaved
In the case of B1, the “stoichiometry N” value [4] is reported as 1 Drs2p:Cdc50p (mol:mol).

B2: Drs2p-Cdc50p complex (Saccharomyces cerevisiae S288C) (protein)
chain: T1 sequence (P39524 1-1355)
notes: full-length, co-expressed in yeast W303.1b/GAL4; N-terminal Bad tag (Drs2p) and His10 tag (Cdc50p) cut by TEV, Gly plus four-Gly linker left; 154,050 Da Drs2p, 45,136 Da unglycosylated Cdc50p; glycosylated; 1:1 complex in DDM; with Cell division control protein 50
With B2 the K0.5 [5] was 10 µM.

— article PMC4230938, “A High-Yield Co-Expression System for the Purification of an Intact Drs2p-Cdc50p Lipid Flippase Complex, Critically Dependent on and Stabilized by Phosphatidylinositol-4-Phosphate” (PLoS ONE, 2014)
